“Also recorded” adds a separate entry of the source.
Assays:
HA-PKBα [1] = test: 32P-labelling of transfected 293 cells: phosphorylation sites of HA-PKBα; format: cell-based, human; details: 293 cells cotransfected with PDK1
Method: FIG. 15. Overexpression of PDK1 in cells induces phosphorylation of PKBα at Thr308. 293 cells transiently transfected with either wild type HA-PKBα (panels A and C) or HA-PKBα and Myc-PDK1 (panels B and D) were incubated with ^32P-orthophosphate, then treated for 10 min without (panels A and B) or with (panels C and D) 50 ng/ml IGF1. The ^32P-labelled HA-PKBα was immunoprecipitated from the lysates, treated with 4-vinylpyridine, and electrophoresed on 1 10% polyacrylamide gel. The HA-PKBα was excised from the gel, digested with trypsin and chromatographed on a C18 column (see legend to FIG. 13) to resolve the four major phosphopeptides which are phosphorylated at Ser-124, Ser473, Thr308 and Thr450 respectively. The identity of each phosphopeptide was established by phospho-amino acid analysis and solid phase sequencing. Similar results were obtained in two separate experiments for (panels A and C), and in three separate experiments (panels B and D).
(§1) ^32P-labelling of 293 cells transfected with HA-PKBα or Myc-PDK1. This was carried out essentially as described previously. Briefly, 293 cells were transfected with HA-PKBα, or with HA-PKBα plus Myc-PDK1, washed with phosphate free DMEM, incubated for 4 h with [^32P]-orthophosphate (1 mCi/ml), then stimulated with IGF1 (50 ng/ml) for 5 min. The cells were lysed, and the HA-PKBα immunoprecipitated (using 10 μg of 12CAS antibody per 10 cm dish of cells) or the Myc-PDK1 immunoprecipitated (using 10 μg of 9E10 antibody per 10 cm dish of cells). The immunoprecipitated protein was alkylated with 4-vinylpyridine, subjected to SDS/polyacrylamide gel electrophoresis, digested with trypsin and analysed by chromatography on a C18 column (Alessi et al (1996) EMBO J. 15, 6541-6551).

HA-PKBα [2] = test: HA-PKBα activity in transfected 293 cells; format: cell-based, human
Method: FIG. 14. PKBα is activated by cotransfection with PDK1 in 293 cells. (A) 293 cells were transiently transfected with DNA constructs expressing either HA-PKBα or both HA-PKBα and Myc-PDK1. The cells were then stimulated for 10 min with or without 50 ng/ml IGF1, the HA-PKBα immunoprecipitated from the lysates and assayed. The results are expressed relative to the specific activity of wild type HA-PKBα in unstimulated 293 cells ([…]). No PKBα activity was detected in mock transfections in which the cells were transfected with PCMV5 vector alone (data not shown). (B) 6 μg of protein from each lysate was electrophoresed on a 10% SDS/polyacrylamide gel and immunoblotted using either a monoclonal HA-antibody to detect HA-PKBα or a monoclonal Myc-antibody to detect Myc-PDK1. The molecular mass markers are glycogen phosphorylase (97 kDa), bovine serum albumin (67 kDa) and ovalbumin (43 kDa).
Transfection of 293 cells with HA-tagged PBKα and Myc-PDK1. Human embryonic kidney 293 cells were cultured on 10 cm diameter dishes and transfected with 2 μg/ml pCMV5 DNA constructs encoding for HA-PKBα or HA-PKBα plus Myc-PDK1 [20]. After 24 h the cells were deprived of serum for a further 16 h and then stimulated for 10 min with either […] IGF1 or Buffer. The cells were lysed in 1.0 ml of ice-cold Buffer A, the lysate centrifuged at 4° C. for 10 min at 13,000×g and HA-PKBα immunoprecipitated from aliquots of the supernatant (10 μg protein) and assayed for PKBα with the peptide RPRAATF (SEQ ID NO: 9) as described previously.

Myc-PDK1 = test: 32P-labelling of 293 cells: phosphorylation of Myc-PDK1; format: cell-based, human; details: 5 min
Method: as §1
In order to see if IGF1 stimulation was inducing the phosphorylation of PDK1, 293 cells were transfected with Myc-PDK1 (encoding residues 52 to 556), incubated with ^32P-phosphate, stimulated with buffer or IGF1 for 5 min and ^32P-labelled Myc-PDK1 was immunoprecipitated from the lysates. After digestion with trypsin, the resulting peptides were analysed by C18 chromatography. […] One of the in vivo phosphorylation sites on PDK1 was identified as Ser-241 which lies in the equivalent position to Thr308 of PKB in the kinase domain.

PDK1 [3] = test: Endogenous PDK1 activity in lysates of IGF1-stimulated 293 cells; format: cell-based, human; details: up to 10 min
Method: PDK1 is not activated or phosphorylated by IGF1. 293 cells were serum starved for 16 h, stimulated with IGF1 lysed and the endogenous PDK1 activity present in the cell lysates was determined after chromatography on heparin-Sepharose (see Methods).

GST-PKBα [4] = test: Activation of GST-PKBα after stimulation of transfected 293 cells; format: cell-based, human; details: versus unstimulated 293 cells
Excerpt: Expression of GST-PKBα in 293 cells. The DNA sequence encoding PKBα was subcloned into the eukaryotic expression vector PEBG2T that has been used to overexpress GST-fusion proteins in eukaryotic cells under an EF1α promoter. A PCR reaction was set up to generate a full length cDNA encoding the PKBα gene with a BamH1site at the 5′ end of the cDNA that is in frame with the GST sequence of the PEBG2T vector and the ATG initiation codon of PKBα, and a KpnI site at the 3′ end, using the human PCMV5-HA-PKBα plasmid. The DNA sequence of the BamH1/KpnI cDNA fragment was checked and then subcloned into the unique BamH1/KpnI restriction sites on the pEBG 2T expression vector. In order to prepare GST-PKBα, 40, 10 cm diameter dishes of human embryonic kidney 293 cells were cultured and each dish transfected with 20 μg of GST PKBα expression construct using the modified calcium phosphate method described previously for overexpression of haemaglutinin tagged PKBα in 293 cells. […]

GST-DSTPK61 = target: T1, GST-DSTPK61 (Drosophila melanogaster, UniProt Q9W0V1); test: GST-DSTPK61 assay: activation and phosphorylation of GST-PKBα; format: biochemical; details: lipid 10 μM in PtdCho/PtdSer vesicles
T1 construct: residues 1-752 of DSTPK61 in E. coli as fusion proteins; made in house; host or cells: E. coli (pGEX-3X)
T1 sequence (Q9W0V1 85-836 Q200H/Q201E/Q317A/G443R): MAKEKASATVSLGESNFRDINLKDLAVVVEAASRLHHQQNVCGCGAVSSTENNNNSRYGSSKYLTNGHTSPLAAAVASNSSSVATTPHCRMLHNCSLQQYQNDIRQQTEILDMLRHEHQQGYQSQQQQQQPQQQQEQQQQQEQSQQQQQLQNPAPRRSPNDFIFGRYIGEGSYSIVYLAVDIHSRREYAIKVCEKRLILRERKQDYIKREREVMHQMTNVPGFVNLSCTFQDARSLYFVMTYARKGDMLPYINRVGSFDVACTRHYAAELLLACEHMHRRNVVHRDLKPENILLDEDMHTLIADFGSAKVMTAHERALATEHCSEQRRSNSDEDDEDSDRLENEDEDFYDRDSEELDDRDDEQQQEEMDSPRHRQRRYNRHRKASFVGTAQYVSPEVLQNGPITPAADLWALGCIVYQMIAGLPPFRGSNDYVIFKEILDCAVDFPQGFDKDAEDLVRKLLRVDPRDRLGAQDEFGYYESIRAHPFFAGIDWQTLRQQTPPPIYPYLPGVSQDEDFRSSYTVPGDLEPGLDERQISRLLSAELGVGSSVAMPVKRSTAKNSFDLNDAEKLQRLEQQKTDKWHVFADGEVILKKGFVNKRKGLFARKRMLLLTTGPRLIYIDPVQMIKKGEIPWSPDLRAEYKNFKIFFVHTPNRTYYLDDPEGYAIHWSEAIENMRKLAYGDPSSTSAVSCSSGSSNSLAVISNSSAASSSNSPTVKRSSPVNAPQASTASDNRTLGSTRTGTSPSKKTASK
Method: (§2) FIG. 12. […] In panels A and C, the assays were terminated by making the incubations 1% (by vol) in TRITON X-100™ (see Ref 21), and the increase in specific activity of GST-PKBα was determined. In panels B and D, the reactions were terminated by making the solutions 1% in SDS, the samples were subjected to SDS/polyacrylamide gel electrophoresis, and the phosphorylation was assessed by autoradiography of the Coomassie blue-stained band corresponding to GST-PKBα.
(§3) One unit of PDK1 activity was defined as that amount required to increase the basal activity of GST-PKBα by 1 unit of activity in one min.

PDK1 [5] = target: T2, PDK1 (Homo sapiens, UniProt O15530); test: Direct binding of PtdIns(3,4,5)P3 to PDK1
T2 sequence (O15530 1-556): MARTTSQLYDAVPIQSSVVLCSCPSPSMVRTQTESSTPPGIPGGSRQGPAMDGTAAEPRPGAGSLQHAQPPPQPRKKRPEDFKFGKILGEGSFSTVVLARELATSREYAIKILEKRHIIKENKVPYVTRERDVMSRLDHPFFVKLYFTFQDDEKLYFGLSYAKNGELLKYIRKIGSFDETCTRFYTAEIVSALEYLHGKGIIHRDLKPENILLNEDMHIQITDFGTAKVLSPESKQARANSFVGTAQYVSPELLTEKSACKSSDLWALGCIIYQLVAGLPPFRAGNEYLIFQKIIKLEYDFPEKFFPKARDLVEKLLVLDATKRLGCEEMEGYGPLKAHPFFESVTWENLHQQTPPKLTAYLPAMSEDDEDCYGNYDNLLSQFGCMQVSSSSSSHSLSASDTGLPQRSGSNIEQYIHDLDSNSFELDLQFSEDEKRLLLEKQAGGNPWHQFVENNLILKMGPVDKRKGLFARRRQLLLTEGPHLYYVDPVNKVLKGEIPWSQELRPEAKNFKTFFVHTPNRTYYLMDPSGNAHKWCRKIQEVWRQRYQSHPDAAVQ

PDK1 [6] = test: PDK1 assay: activation of GST-PKBα by purified PDK1 with phospholipid vesicles; format: biochemical, rabbit; details: lipid 10 μM in vesicles of 100 μM PtdCho, 100 μM PtdSer; 30 min at 30° C.
Procedure, shortened: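 Two-stage assay: GST-PKBα incubated with PDK1, MgATP and phospholipid vesicles to allow activation. Reactions run 10 min at 30 °C, stopped on p81 phosphocellulose paper and washed in phosphoric acid. Basal GST-PKBα activity measured without PDK1.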

GST-PDK1 = target: T3, GST-PDK1 (Homo sapiens, UniProt O15530); test: GST-PDK1 assay: activation and phosphorylation of GST-PKBα; format: biochemical; details: for activation and phosphorylation of GST-PKBα by GST-PDK1 (in words): lipid 10 μM in PtdCho/PtdSer vesicles
T3 construct: Residues 52-556 of PDK1 were expressed in human embryonic kidney 293 cells; made in house; host or cells: human embryonic kidney 293 cells (pEBG2T)
T3 sequence (O15530 52-556): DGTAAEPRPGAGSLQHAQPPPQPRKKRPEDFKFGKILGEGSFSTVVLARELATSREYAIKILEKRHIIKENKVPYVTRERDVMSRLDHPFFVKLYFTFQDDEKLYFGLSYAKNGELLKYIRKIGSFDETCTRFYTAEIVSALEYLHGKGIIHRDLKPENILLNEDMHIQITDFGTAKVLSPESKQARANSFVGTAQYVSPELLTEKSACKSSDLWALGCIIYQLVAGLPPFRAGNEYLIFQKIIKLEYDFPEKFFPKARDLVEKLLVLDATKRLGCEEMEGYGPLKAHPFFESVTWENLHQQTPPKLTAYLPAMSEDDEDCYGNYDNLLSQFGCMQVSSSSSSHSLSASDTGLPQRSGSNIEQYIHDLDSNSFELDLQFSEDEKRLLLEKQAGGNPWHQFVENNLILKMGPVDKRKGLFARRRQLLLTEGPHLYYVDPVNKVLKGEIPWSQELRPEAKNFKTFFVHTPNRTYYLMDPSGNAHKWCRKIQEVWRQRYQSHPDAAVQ
Method: as §2, §3

PKB = PKB (Homo sapiens, UniProt P31749); details: via the N-terminal PH domain; cited from earlier work
Sequence of PKB (P31749 whole entry, species assumed, the tested form may be a part): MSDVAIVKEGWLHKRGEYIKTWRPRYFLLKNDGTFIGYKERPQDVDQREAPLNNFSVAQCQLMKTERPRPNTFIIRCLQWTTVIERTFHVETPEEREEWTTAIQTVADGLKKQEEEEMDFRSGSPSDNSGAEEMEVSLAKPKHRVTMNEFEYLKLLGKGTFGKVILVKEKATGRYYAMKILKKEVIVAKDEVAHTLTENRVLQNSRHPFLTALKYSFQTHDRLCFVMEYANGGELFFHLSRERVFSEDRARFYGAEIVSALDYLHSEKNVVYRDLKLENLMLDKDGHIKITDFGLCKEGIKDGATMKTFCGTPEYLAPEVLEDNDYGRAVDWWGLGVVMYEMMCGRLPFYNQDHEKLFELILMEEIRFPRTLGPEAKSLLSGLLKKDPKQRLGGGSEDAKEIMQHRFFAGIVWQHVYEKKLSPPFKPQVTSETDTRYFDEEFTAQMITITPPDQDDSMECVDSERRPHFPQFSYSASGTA

GST-PKBα [7] = target: T4, GST-PKBα (Homo sapiens, UniProt P31749); test: GST-PKBα activity and phosphorylation with lipids in the absence of PDK1; format: biochemical; details: same conditions as PDK1 activation
T4 construct: generate a full length cDNA encoding the PKBα gene; made in house; host or cells: human embryonic kidney 293 cells (pEBG2T), serum starved
T4 sequence (P31749 whole entry): as the sequence (P31749 whole entry, species assumed, the tested form may be a part) above
Method: Assay of PDK1. The assay was carried out in two stages; in the first, GST-PKBα was incubated with PDK1 in the presence of MgATP and phospholipid vesicles to permit activation of GST-PKBα.
After 10 min at 30° C., the reactions were terminated by spotting the reaction mixture on to p81 phosphocellulose paper. The papers were washed in phosphoric acid and analysed as described previously. […] The basal GST-PKBα activity is the activity measured in the absence of PDK1.

Substance	further fold increase of Thr308 phosphorylation of HA-PKBα (HA-PKBα [1]) [fold]	fold increase of HA-PKBα activity after stimulation (HA-PKBα [2]; 293 cells transfected with HA-PKBα alone, 10 min) [fold]	fold increase of HA-PKBα activity after stimulation (HA-PKBα [2]; 293 cells transfected with both HA-PKBα and Myc-PDK1) [fold]	phosphorylation of Myc-PDK1 tryptic peptides after stimulation of 293 cells (Myc-PDK1)	endogenous PDK1 activity after stimulation of 293 cells (PDK1 [3])	fold activation of GST-PKBα after stimulation of 293 cells (GST-PKBα [4]) [fold]	activation and phosphorylation of GST-PKBα by GST-DSTPK61 (in words) (GST-DSTPK61)	binding to PDK1 (in words) (PDK1 [5])	activation of PDK1 (in words) (PDK1 [6])	activation and phosphorylation of GST-PKBα by GST-PDK1 (in words) (GST-PDK1)	affinity of binding to PKB (in words) (PKB)	fold enhancement of PDK1 activity in the presence of the inositol phospholipid (GST-PDK1; versus absence of PtdIns(3,4,5)P3 or PtdIns(3,4)P2)	activation, inhibition or phosphorylation of GST-PKBα in the absence of PDK1 (GST-PKBα [7])
IGF1: growth factor IGF1 used to stimulate 293 cells	4	40	70	does not alter the phosphorylation; also recorded: did not affect	did not result in any activation or inhibition; also recorded: did not affect	45							
Phosphatidylinositol 3,4,5-tris phosphate [PtdIns(3,4,5)P3]							activated and phosphorylated GST-PKBα	bind PtdIns(3,4,5)P3 directly	only active in the presence of low micromolar concentrations	activated and phosphorylated GST-PKBα			
Phosphatidylinositol 3,4-bisphosphate [PtdIns(3,4)P2]							activated and phosphorylated GST-PKBα		only active in the presence of low micromolar concentrations	activated and phosphorylated GST-PKBα	micromolar affinity	about 1000 fold	no effect

Source: patent US7842488B2, “Polynucleotides encoding a human 3-phosphoinositide- dependent protein kinase” (Medical Research Council, priority 1997, dated 2010)
